We go through one compound from patent US7635691B2, “Use of CDP-choline for the prophylactic treatment of cerebral ischemia” (Ferrer Internacional, S.A., priority 2000, dated 2009).

This assay has as its system caspases 1, 2, 3, 6 and 8. As to the kind of experiment: Caspase expression (apoptosis markers) after permanent middle cerebral artery occlusion, model of cortical cerebral ischemia in the rat. The format is in vivo. As to the method: The effect of CDP-Choline on deferred nerve cell death (apoptosis) has been assessed in a model of cortical cerebral ischemia in the rat in accordance with the following experimental protocol:
All cerebral infarction tests were performed in male Sprague-Dawley rats weighing 220-270 g. Animals were housed, with free access to food and water, in temperature- and humidity-controlled rooms with a 12/12 h light-dark cycle.
Cerebral ischemia was induced by a permanent proximal occlusion of the middle cerebral artery using electrocoagulation. Under deep anesthesia, the rat head was clipped and an incision was made between the left ear and the left eye. Then, the cranium was exposed by sectioning the temporal muscle. Craniotomy was performed using a 1-2 mm drill behind the scaly fissure. The dura mater was drilled in order to expose the middle cerebral artery arm which was permanently coagulated.
Rats were randomly divided into three groups:
(a) After 30 minutes of ischemia, the animals in this group were treated with CDP-Choline (500 mg/kg) in 0.9% sterile physiologic saline (0.1 ml) administered intraperitoneally. This group is depicted in FIGS. 1 through 5 as “After.”
(b) Since 24 hours before ischemia and after 30 minutes of ischemia, the animals in this group received the same treatment as in group (a). This group is depicted in FIGS. 1 through 5 as “Before.”
(c) The animals in this group were used as control. After ischemia, they were treated with 0.9% physiologic saline vehicle (0.1 ml) administered intraperitoneally. This group is depicted in FIGS. 1 through 5 as “Control.”
The animals were allowed to recover at different times (30 min and 1, 4, 8, 12, 24 and 48 hours) before terminal anesthesia with ethyl ether. […]
For assessment of the effect of treatment, the expression of caspases 1, 2, 3, 6 and 8, as markers of apoptosis process, was measured 12 hours after infarction induction, whose results are shown in FIGS. 1, 2, 3, 4, and 5, respectively. […]

Regarding `C[N+](C)(C)CCOP(=O)(O)OP(=O)([O-])OC[C@H]1O[C@@H](n2ccc(N)nc2=O)[C@H](O)[C@@H]1O` [CDP-Choline, cytidine-diphosphate-choline], the “caspase level, treatment before and after ischemia compared with treatment only after ischemia” value (500 mg/kg intraperitoneally from 24 hours before ischemia and 30 minutes after ischemia ('Before') vs only 30 minutes after ischemia ('After'), 12 hours after infarction induction) is recorded as “decreases caspase level more significantly than when administered only after infarction induction”. Further, where the note is “male Sprague-Dawley rats, CDP-Choline 500 mg/kg intraperitoneally, groups 'After' and 'Before' vs saline control, measured 12 hours after infarction induction, figures in immunofluorescence units”, the “expression of caspases 1, 2, 3, 6 and 8 as markers of apoptosis process, treated vs control” value was “significant differences between treated and control animals”. The “nerve cell apoptosis in the penumbra area” value (summary statement in the description, rat focal ischemia model) is given as “reduces nerve cell apoptosis in the penumbra area”.
